Experiment [1] relates to Karashi (17-3min RNA) (RNA, aptamer) GGGCUGAAUGAAGAGCAGUAGCGAGUAGUUCACAAGCUUCGGCUUGUAGGAAGUAAAUGUGCAAAUCCGUAACUAGCCU
As to the kind of experiment: fluorescence enhancement. The note with it: 10 mM Mg2+; 40 mM Tris-Cl pH 7.5, 37 °C; 0.1 μM RNA, 0.1 μM DMHBI.

In experiment [2] the test system is Karashi A51G (RNA, aptamer) GGGCUGAAUGAAGAGCAGUAGCGAGUAGUUCACAAGCUUCGGCUUGUAGGGAGUAAAUGUGCAAAUCCGUAACUAGCCU
As to the kind of experiment: fluorescence enhancement. The note with it: 10 mM Mg2+; 40 mM Tris-Cl pH 7.5, 37 °C; 0.1 μM RNA, 0.1 μM DMHBI.

For experiment [3], the system named is Karashi G69A (RNA, aptamer) GGGCUGAAUGAAGAGCAGUAGCGAGUAGUUCACAAGCUUCGGCUUGUAGGAAGUAAAUGUGCAAAUCCAUAACUAGCCU
As to the kind of experiment: fluorescence enhancement. The note with it: 10 mM Mg2+; 40 mM Tris-Cl pH 7.5, 37 °C; 0.1 μM RNA, 0.1 μM DMHBI.

For experiment [4], the system named is Jigarashi RNA (RNA, aptamer) GGUUUCCCCGAAGAGCAGUAGCGAGUAGGGGCCCAGCUUCGGCUGGGAGGAAGUAAAUGUGCAAAUCCGUAACUAAACU
Kind of experiment: fluorescence enhancement. The note with it: 10 mM Mg2+; 40 mM Tris-Cl pH 7.5, 37 °C; 0.1 μM RNA, 0.1 μM DMHBI.

Experiment [5] deals with fr-1 RNA + fr-2 RNA (RNA, aptamer) GGUUUCCCCGAAGAGCAGUAGCGAGUAGGGGCCCAGCU/GGCUGGGAGGAAGUAAAUGUGCAAAUCCGUAACUAAACU
As to the kind of experiment: fluorescence enhancement. The note with it: 10 mM Mg2+; 40 mM Tris-Cl pH 7.5, 37 °C; 0.1 μM each RNA, 0.1 μM DMHBI.

The test system of experiment [6] is 17-3minCP (RNA, aptamer) GGGCUUGUAGGAAGUAAAUGUGCAAAUCCGUAACUAGCUUCGGCUGAAUGAAGAGCAGUAGCGAGUAGUUCACAAGCCU
As to the kind of experiment: fluorescence enhancement. The note with it: 10 mM Mg2+; 40 mM Tris-Cl pH 7.5, 37 °C; 0.1 μM RNA, 0.1 μM DMHBI.

Experiment [7] has as its system m1 mutant of 17-3min RNA (RNA, aptamer) GGGCUGUUUGAAGAGCAGUAGCGAGUAGAACACAAGCUUCGGCUUGUAGGAAGUAAAUGUGCAAAUCCGUAACUAGCCU
As to the kind of experiment: fluorescence enhancement. The note with it: 10 mM Mg2+; 40 mM Tris-Cl pH 7.5, 37 °C; 0.1 μM RNA, 0.1 μM DMHBI.

The subject of experiment [8] is m3 mutant of Karashi RNA (RNA, aptamer) GGGCUGCCUGAAGAGCAGUAGCGAGUAGGGCACAAGCUUCGGCUUGUAGGAAGUAAAUGUGCAAAUCCGUAACUAGCCU
As to the kind of experiment: fluorescence enhancement. The note with it: 10 mM Mg2+; 40 mM Tris-Cl pH 7.5, 37 °C; 0.1 μM RNA, 0.1 μM DMHBI.

For experiment [9], the system named is 17-3 RNA (RNA, aptamer) GGGAGACGCAACUGAAUGAAGAGCAGUAGCGAGUAGUUCACAAGAGCUGCUUCGGCAGGAUCUUGUAGGAAGUAAAUGUGCAAAUCCGUAACUAGUCGCGUCAC
As to the kind of experiment: fluorescence enhancement titration. The following applies: 50 mM Mg2+; 40 mM Tris-Cl pH 7.5, 37 °C; 5 nM DMHBI titrated with RNA; Hill fit.

Data on one molecule can be found in publication PMC12029786 (2025).

Turning to `COc1cc(/C=C2\N=C(C)N(C)C2=O)cc(OC)c1O`, the binding result in experiment [1], in experiment [2], in [3], in experiment [4], in experiment [5] and in [6] was “yes” throughout. For the same molecule, the binding result in experiment [7] and in experiment [8] was “yes” throughout. In experiment [9], the Kd was 43 nM.

A word on the Kd: it is the equilibrium constant for the complex coming apart.
